The assay has as its system E. coli. The experiment in a line: Classical method of serial antibiotic dilution for MIC. Type of assay: cell-based. As to conditions: FIG. 7E. The procedure:
FIGS. 7A-7E: (7A-7D) Scatter plots, with best fit lines of optical output measured by intensity shift as a function of time, performed on a series of 6 semi-stable sucrose coated grating units in parallel inoculated with E. coli cells and treated an hour later with (7A) 0 μg, (7B) 2.5 μg, (7C) 5.0 μg, and (7D) 7.5 μg of G418. (7E) A photograph of the classical serial dilution method for determining the MIC of G418 for treating E. coli.
By monitoring the diffraction over time, a range for minimum inhibitory concentration (MIC) was established (FIG. 7A-D). A control well received no antibiotic and normal logarithmic growth was observed (FIG. 7A). […] This would place the MIC at between 2.5 and 5.0 which was the same as the range (2.3-4.7 μg) found by the classical method of serial antibiotic dilution (FIG. 7E).

As to `CN[C@@H]1[C@@H](O)[C@@H](O[C@@H]2[C@@H](O)[C@H](O[C@H]3O[C@H]([C@@H](C)O)[C@@H](O)[C@H](O)[C@H]3N)[C@@H](N)C[C@H]2N)OC[C@]1(C)O` [G418], the “MIC range found by classical serial antibiotic dilution” value was in the range of 2.3 to 4.7 µg.

The values are drawn from patent US20220128557A1, “[…] METHODS FOR REAL-TIME CELL MONITORING” (PHENOFAST LTD., priority 2019, published 2022).
